Earlier results on four compounds are cited in patent US20230201166A1, “METHODS FOR TREATING CANCER BY INHIBITING CARM1” (DANA-FARBER CANCER INSTITUTE, INC., priority 2020, published 2023).

Like-named read-outs stand apart in the source and are kept apart here. Some results are limits rather than exact numbers.

Series [1] addresses T1, CARM1 (Homo sapiens, UniProt Q86X55).
T1 sequence (Q86X55 1-608): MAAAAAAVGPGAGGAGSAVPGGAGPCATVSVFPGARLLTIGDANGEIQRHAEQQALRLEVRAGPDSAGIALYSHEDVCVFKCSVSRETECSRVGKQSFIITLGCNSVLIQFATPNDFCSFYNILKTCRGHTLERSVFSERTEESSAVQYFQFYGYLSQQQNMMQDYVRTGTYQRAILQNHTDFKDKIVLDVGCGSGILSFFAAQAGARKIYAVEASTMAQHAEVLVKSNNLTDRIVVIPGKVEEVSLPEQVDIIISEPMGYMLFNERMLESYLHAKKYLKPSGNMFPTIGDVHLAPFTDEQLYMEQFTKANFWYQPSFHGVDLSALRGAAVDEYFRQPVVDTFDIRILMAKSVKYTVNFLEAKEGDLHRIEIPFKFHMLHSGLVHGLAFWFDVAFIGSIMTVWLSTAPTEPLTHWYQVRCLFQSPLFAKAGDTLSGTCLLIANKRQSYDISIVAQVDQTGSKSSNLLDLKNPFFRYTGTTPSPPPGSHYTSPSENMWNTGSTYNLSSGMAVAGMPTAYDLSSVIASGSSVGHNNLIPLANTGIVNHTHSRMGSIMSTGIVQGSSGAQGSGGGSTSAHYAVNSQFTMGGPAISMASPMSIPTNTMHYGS
The settings on record: read-out: CARM1 ICW IC50; cited from earlier work.

Series [2] deals with T1, CARM1. To be noted: read-out: CARM1 Biochemical IC50; cited from earlier work.

For the compound `CNC[C@@H](O)COc1ccc(Cl)c(-c2nc(-c3c(C)noc3C)c(C)c(N3Cc4cnc(N5CCC5)nc4C3)n2)c1` [EPZ025654], on CARM1 [1], the IC50 is 0.011 µM.

With `Cn1cnc2ccc(-c3cccc(OCC(O)CN)c3)nc21` (centres unmarked) [compound 1], the IC50 at CARM1 [1] was > 20 µM.

With `CC(C)n1ncc2c(N3CCOCC3)cc(-c3cccc(OCC(O)CN)c3)nc21` (centres unmarked) [compound 2], the IC50 on CARM1 [1] was 19 µM.

Regarding `CNC[C@@H](O)COc1cc(-c2nc(-c3c(C)noc3C)c(C)c(N3CC4(CCN(C(=O)OC)CC4)C3)n2)ccc1Cl` [compound 3], the IC50 is > 6.5 µM on CARM1 [1] and > 1 µM on CARM1 [2].
